IC50 data for 1 molecule are collected here from PMC6503450, “Proteases Underground: Analysis of the Maize Root Apoplast Identifies Organ Specific Papain-Like Cysteine Protease Activity” (Frontiers in Plant Science, 2019).

The target in one assay is T1, CP1C (Zea mays, UniProt B4FS90).
T1 sequence (B4FS90 150-389 limits assumed): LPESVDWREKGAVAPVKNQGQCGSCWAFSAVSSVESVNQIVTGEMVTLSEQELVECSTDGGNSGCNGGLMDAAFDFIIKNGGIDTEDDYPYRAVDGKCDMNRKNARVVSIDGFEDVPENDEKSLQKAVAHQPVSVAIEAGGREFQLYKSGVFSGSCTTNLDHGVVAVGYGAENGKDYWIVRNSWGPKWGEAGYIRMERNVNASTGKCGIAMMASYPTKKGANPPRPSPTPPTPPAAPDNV
Briefly: fluorogenic substrate cleavage assay, apoplastic fluid of overexpressing N. benthamiana. It counts as cell-based. The following applies: 10 uM Z-LR-AMC, pH 6, 0.5 mM DTT; covalent irreversible active-site inhibitor.

In a further assay the target is T2, CP1B (Zea mays, UniProt K7TP58).
T2 construct: gene LOC100283284
The assay is described as above. It counts as cell-based.

The structures appear in SMILES notation.

T2 sequence (K7TP58 135-372 limits assumed): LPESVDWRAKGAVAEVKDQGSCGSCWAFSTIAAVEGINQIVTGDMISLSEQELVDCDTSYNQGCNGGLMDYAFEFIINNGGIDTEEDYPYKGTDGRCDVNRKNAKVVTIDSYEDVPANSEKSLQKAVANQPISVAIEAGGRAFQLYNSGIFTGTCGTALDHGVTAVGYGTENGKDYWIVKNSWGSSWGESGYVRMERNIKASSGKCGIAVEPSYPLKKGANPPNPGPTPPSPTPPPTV

A word on the IC50: it is the concentration that inhibits the measured activity by half. As for `CC(C)C[C@H](NC(=O)[C@H]1O[C@@H]1C(=O)O)C(=O)NCCCCN=C(N)N` [E-64], the IC50 was determined as 3.2 ± 0.2 nM on CP1C and 10 ± 0.9 nM on CP1B.
